This passage reports EC50 and IC50 results from US20160002204A1 (Board of Regents, The University of Texas System, priority 2014, published 2016).

One experiment deals with A549 cells. As to the kind of experiment: A549 proliferation (viability) assay, Cell Titer Fluor, 72 hours. It counts as cell-based. To be noted: Homo sapiens. In outline:
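Seed A549 at 1000 cells/well and culture 24 h. Add compound (final DMSO 0.5%) and incubate 72 h at 37 °C. Add Cell Titer Fluor, mix 15 min, incubate 30 min, read fluorescence and fit EC50 by four-parameter logistic.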

For experiment [1], the target named is T1, GLS1 (purified recombinant human GAC) (Homo sapiens, UniProt O94925).
T1 sequence (O94925 55-598 isoform O94925-3 limits assumed): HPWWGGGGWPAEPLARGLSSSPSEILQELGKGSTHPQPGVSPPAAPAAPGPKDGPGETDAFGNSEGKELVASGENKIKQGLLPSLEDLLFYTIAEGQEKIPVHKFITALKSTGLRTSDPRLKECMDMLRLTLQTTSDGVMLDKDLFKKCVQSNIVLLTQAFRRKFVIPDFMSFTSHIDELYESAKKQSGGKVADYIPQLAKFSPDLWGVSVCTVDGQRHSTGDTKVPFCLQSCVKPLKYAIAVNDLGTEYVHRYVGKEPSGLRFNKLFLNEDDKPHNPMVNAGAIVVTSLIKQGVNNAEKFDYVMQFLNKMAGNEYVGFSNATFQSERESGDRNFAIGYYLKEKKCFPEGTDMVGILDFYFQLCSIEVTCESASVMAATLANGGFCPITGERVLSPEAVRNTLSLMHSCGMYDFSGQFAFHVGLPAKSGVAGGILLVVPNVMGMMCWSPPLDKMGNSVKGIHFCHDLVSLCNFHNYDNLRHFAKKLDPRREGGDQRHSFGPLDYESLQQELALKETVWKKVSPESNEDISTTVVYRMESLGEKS
As to the kind of experiment: GLS1 enzymatic activity assay (dual-coupled, Amplex UltraRed/resorufin). It counts as biochemical. Summed up: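 GAC activity measured by coupling glutamate to glutamate oxidase and HRP, generating resorufin from Amplex UltraRed. Enzyme (2 nM) preincubated with 50 mM potassium phosphate 10 min at room temperature, then inhibitor 10 min; 1 mM glutamine substrate, 1% DMSO. Fluorescence 530/590 nm, kinetic or 20-min endpoint; IC50 from four-parameter logistic fit.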

Where only a bound is given, the exact number is not on record here.

A word on the EC50: it is the concentration giving half of the maximal effect. What is called IC50 is the concentration that gives 50% inhibition. Molecule `O=C(Cc1ccccc1)Nc1ccn(CC[C@H](F)Cn2cc(C(=O)NCc3cccc(C(F)(F)F)n3)nn2)c(=O)c1F` [Example 126, (S)-1-(2-fluoro-4-(3-fluoro-2-oxo-4-(2-phenylacetamido)pyridin-1(2H)-yl)butyl)-N-((6-(trifluoromethyl)pyridin-2-yl)methyl)-1H-1,2,3-triazole-4-carboxamide] displayed an EC50 in the experiment on A549 cells of 100 to 500 nM. Also, the 50% inhibitory concentration (IC50) in experiment [1] was less than 100 nM.

Consider `O=C(CC1CCCC1)Nc1ccn(CCC(F)Cn2cc(C(=O)NCc3ccc(C(F)(F)F)nc3)nn2)c(=O)c1F` (stereo not shown) [Example 369, 1-{4-[4-(2-cyclopentylacetamido)-3-fluoro-2-oxo-1,2-dihydropyridin-1-yl]-2-fluorobutyl}-N-{[6-(trifluoromethyl)pyridin-3-yl]methyl}-1H-1,2,3-triazole-4-carboxamide], for which the half-maximal effective concentration (EC50) in the experiment with A549 cells is less than 100 nM. For the same molecule, the IC50 in experiment [1] was less than 100 nM.

For `COC1CCCN(C(=O)C(=O)Nc2ccn(CCC(F)Cn3cc(C(=O)NCc4cc(OC(F)(F)F)ccc4F)nn3)c(=O)c2F)C1` (stereo not shown) [Example 433, 1-(2-fluoro-4-{3-fluoro-4-[2-(3-methoxypiperidin-1-yl)-2-oxoacetamido]-2-oxo-1,2-dihydropyridin-1-yl}butyl)-N-{[2-fluoro-5-(trifluoromethoxy)phenyl]methyl}-1H-1,2,3-triazole-4-carboxamide], the EC50 in the experiment on A549 cells fell in the range of 100 to 500 nM. Moreover, the IC50 in experiment [1] was less than 100 nM.

`O=C(Cc1ccccn1)Nc1ccn(CCCCc2nnc(C(=O)NCc3cccc(OC(F)(F)F)c3)s2)c(=O)c1` [Example 456, 5-(4-{2-oxo-4-[2-(pyridin-2-yl)acetamido]-1,2-dihydropyridin-1-yl}butyl)-N-{[3-(trifluoromethoxy)phenyl]methyl}-1,3,4-thiadiazole-2-carboxamide] gave an EC50 with A549 cells of 100 to 500 nM. The IC50 in experiment [1] was less than 100 nM.

Regarding `O=C(Cc1ccccc1F)Nc1ccn(CCC(F)Cn2cc(C(=O)NCc3ccc(C(F)(F)F)nc3)nn2)c(=O)c1F` (stereo not shown) [Example 371, 1-(2-fluoro-4-{3-fluoro-4-[2-(2-fluorophenyl)acetamido]-2-oxo-1,2-dihydropyridin-1-yl}butyl)-N-{[6-(trifluoromethyl)pyridin-3-yl]methyl}-1H-1,2,3-triazole-4-carboxamide], the concentration giving a half-maximal response (EC50) in the experiment with A549 cells is 100 to 500 nM. Also, in experiment [1], the IC50 is less than 100 nM.

Regarding `CC(NC(=O)c1cn(CCCCn2ccc(NC(=O)CC3CCCCC3)cc2=O)nn1)c1cccc(OC(F)(F)F)c1` (stereo not shown) [Example 193, 1-{4-[4-(2-cyclohexylacetamido)-2-oxo-1,2-dihydropyridin-1-yl]butyl}-N-{1-[3-(trifluoromethoxy)phenyl]ethyl}-1H-1,2,3-triazole-4-carboxamide], the EC50 with A549 cells fell in the range of 500 to 5000 nM. Also, in experiment [1], the concentration for half-maximal inhibition (IC50) lay within 100 to 500 nM.

Regarding `O=C(Nc1ccn(CCCCc2nnc(C(=O)NCc3cc(C(F)(F)F)ccn3)s2)c(=O)c1F)OC1CCC1` [Example 469, cyclobutyl N-(3-fluoro-2-oxo-1-{4-[5-({[4-(trifluoromethyl)pyridin-2-yl]methyl}carbamoyl)-1,3,4-thiadiazol-2-yl]butyl}-1,2-dihydropyridin-4-yl)carbamate], the 50% effective concentration (EC50) in the experiment with A549 cells fell in the range of 100 to 500 nM. Further, the IC50 in experiment [1] is less than 100 nM.

`CC(C)(O)c1ccc(CNC(=O)c2cn(CC(F)CCn3ccc(NC(=O)CC4CCCCC4)c(F)c3=O)nn2)cn1` (stereo not shown) [Example 268, 1-{4-[4-(2-cyclohexylacetamido)-3-fluoro-2-oxo-1,2-dihydropyridin-1-yl]-2-fluorobutyl}-N-{[6-(2-hydroxypropan-2-yl)pyridin-3-yl]methyl}-1H-1,2,3-triazole-4-carboxamide] displayed an EC50 in the experiment with A549 cells of 100 to 500 nM. Besides, the half-inhibitory concentration (IC50) in experiment [1] was less than 100 nM.

The molecule `O=C1CCC(CC(=O)Nc2ccn(CCCCn3cc(C(=O)NCc4cccc(OC(F)(F)F)c4)nn3)c(=O)c2)CC1` [Example 204, 1-(4-{2-oxo-4-[2-(4-oxocyclohexyl)acetamido]-1,2-dihydropyridin-1-yl}butyl)-N-{[3-(trifluoromethoxy)phenyl]methyl}-1H-1,2,3-triazole-4-carboxamide] registered an EC50 in the experiment with A549 cells of 500 to 5000 nM. Also, in experiment [1], the IC50 is less than 100 nM.

For `Cc1ccc(CNC(=O)c2cn(CC(F)CCn3ccc(NC(=O)CC4CCCOC4)cc3=O)nn2)cn1` (stereo not shown) [Example 196, 1-(2-fluoro-4-{4-[2-(oxan-3-yl)acetamido]-2-oxo-1,2-dihydropyridin-1-yl}butyl)-N-[(6-methylpyridin-3-yl)methyl]-1H-1,2,3-triazole-4-carboxamide], the EC50 in the experiment with A549 cells was in the range of 500 to 5000 nM. The IC50 in experiment [1] was less than 100 nM.

In the experiment on A549 cells, `O=C(CC1CCCC1)Nc1ccn(CCCCn2cc(C(=O)NCc3cccc(C(F)(F)F)c3)nn2)c(=O)c1` [Example 153, 1-{4-[4-(2-cyclopentylacetamido)-2-oxo-1,2-dihydropyridin-1-yl]butyl}-N-{[3-(trifluoromethyl)phenyl]methyl}-1H-1,2,3-triazole-4-carboxamide] yielded a concentration giving a half-maximal response (EC50) of less than 100 nM. For the same molecule, the half-inhibitory concentration (IC50) in experiment [1] was less than 100 nM.

Molecule `C[C@H](C(=O)Nc1ccn(CCC(F)Cn2cc(C(=O)NCc3cc(C(F)(F)F)ccn3)nn2)c(=O)c1F)c1ccccc1` (stereo partly drawn) [Example 343, 1-(2-fluoro-4-{3-fluoro-2-oxo-4-[(2S) 2-phenylpropanamido]-1,2-dihydropyridin-1-yl}butyl)-N-{[4-(trifluoromethyl)pyridin-2-yl]methyl}-1H-1,2,3-triazole-4-carboxamide] came in with an EC50 in the experiment on A549 cells of less than 100 nM. In experiment [1], the IC50 is less than 100 nM.

`O=C(NCc1cc(C(F)(F)F)ccn1)c1cn(CC(F)CCn2ccc(COc3cccc(F)c3)cc2=O)nn1` (stereo not shown) [Example 482, 1-{2-fluoro-4-[4-(3-fluorophenoxymethyl)-2-oxo-1,2-dihydropyridin-1-yl]butyl}-N-{[4-(trifluoromethyl)pyridin-2-yl]methyl}-1H-1,2,3-triazole-4-carboxamide] gave an EC50 in the experiment with A549 cells of 100 to 500 nM. Moreover, the IC50 in experiment [1] is less than 100 nM.

In the experiment with A549 cells, `CC(C)(C)OC(=O)N1CC2(CN(CC(=O)Nc3ccn(CCC(F)Cn4cc(C(=O)NCc5cccc(OC(F)(F)F)c5)nn4)c(=O)c3F)C2)C1` (stereo not shown) [Example 297, tert-butyl 6-{[(3-fluoro-1-{3-fluoro-4-[4-({[3-(trifluoro-methoxy)phenyl]methyl}carbamoyl)-1H-1,2,3-triazol-1-yl]butyl}-2-oxo-1,2-dihydropyridin-4-yl)carbamoyl]methyl}-2,6-diazaspiro[3.3]heptane-2-carboxylate] yielded an EC50 of less than 100 nM. Further, the half-inhibitory concentration (IC50) in experiment [1] was less than 100 nM.

On to `O=C(Cc1ccccc1)Nc1ccn(CC(F)CCn2cc(C(=O)NCc3cc(OC(F)(F)F)ccc3F)nn2)c(=O)c1` (stereo not shown) [Example 13, 1-(3-fluoro-4-(2-oxo-4-(2-phenylacetamido)pyridin-1(2H)-yl)butyl)-N-(2-fluoro-5-(trifluoromethoxy)benzyl)-1H-1,2,3-triazole-4-carboxamide], for which the EC50 with A549 cells was less than 100 nM. The half-inhibitory concentration (IC50) in experiment [1] is less than 100 nM.

In the experiment with A549 cells, `O=C(NCc1ccccc1)c1ccn(CCCCn2cc(C(=O)NCc3cccc(OC(F)(F)F)c3)nn2)c(=O)c1` [Example 8, N-Benzyl-2-oxo-1-(4-(4-((3-(trifluoromethoxy)benzyl)carbamoyl)-1H-1,2,3-triazol-1-yl)butyl)-1,2-dihydropyridine-4-carboxamide] yielded an EC50 of 100 to 500 nM. The concentration for half-maximal inhibition (IC50) in experiment [1] was less than 100 nM.

Regarding `CC(C)CNC(=O)c1cn(CCCCn2ccc(NC(=O)Cc3ccccc3)cc2=O)nn1` [Example 35, N-(2-methylpropyl)-1-{4-[2-oxo-4-(2-phenylacetamido)-1,2-dihydropyridin-1-yl]butyl}-1H-1,2,3-triazole-4-carboxamide], the 50% effective concentration (EC50) in the experiment on A549 cells was more than 5000 nM. Besides, the IC50 in experiment [1] was in the range of 500 to 5000 nM.

With `Cc1ccc(CNC(=O)c2cn(CC(F)CCn3ccc(NC(=O)OC4CCC4)nc3=O)nn2)cn1` (stereo not shown) [Example 413, cyclobutyl N-{1-[3-fluoro-4-(4-{[(6-methylpyridin-3-yl)methyl]carbamoyl}-1H-1,2,3-triazol-1-yl)butyl]-2-oxo-1,2-dihydropyrimidin-4-yl}carbamate], the EC50 in the experiment with A549 cells is 500 to 5000 nM. Also, in experiment [1], the half-inhibitory concentration (IC50) was 100 to 500 nM.

With `O=C(CN1CC(F)(F)C1)Nc1ccn(CCC(F)Cn2cc(C(=O)NCc3cccc(OC(F)(F)F)c3)nn2)c(=O)c1` (stereo not shown) [Example 232, 1-(4-{4-[2-(3,3-difluoroazetidin-1-yl)acetamido]-2-oxo-1,2-dihydropyridin-1-yl}-2-fluorobutyl)-N-{[3-(trifluoromethoxy)phenyl]methyl}-1H-1,2,3-triazole-4-carboxamide], the concentration giving a half-maximal response (EC50) in the experiment with A549 cells lay in the range of 100 to 500 nM. In addition, the IC50 in experiment [1] is less than 100 nM.

Turning to `O=C(NCc1cc(C(F)(F)F)ccn1)c1cn(CC(F)CCn2ccc(COc3ccc(Cl)cc3)cc2=O)nn1` (stereo not shown) [Example 486, 1-{4-[4-(4-chlorophenoxymethyl)-2-oxo-1,2-dihydropyridin-1-yl]-2-fluorobutyl}-N-{[4-(trifluoromethyl)pyridin-2-yl]methyl}-1H-1,2,3-triazole-4-carboxamide], the 50% effective concentration (EC50) in the experiment on A549 cells is less than 100 nM. Further, the 50% inhibitory concentration (IC50) in experiment [1] was less than 100 nM.
